The values that follow come from paper PMC10384572, “Marine Meroterpenoids Isolated from Gongolaria abies-marina Induce Programmed Cell Death in Naegleria fowleri” (Pharmaceuticals, 2023).

Data set [1] is described as follows: In vitro cytotoxicity against murine macrophages (alamarBlue). The following applies: mouse, J774A.1 murine macrophages (ATCC TIB-67), murine macrophages J774A.1, 24 h, mean ± SD. Format: cell-based. The method, then:
Murine macrophages from the J774A.1 cell line (ATCC® TIB-67) were maintained in Dulbecco’s Modified Eagle’s medium (DMEM) in order to evaluate the toxicity of the compounds. In addition, 10% (v/v) FBS and 10 μg/mL gentamicin (Sigma-Aldrich, Madrid, Spain) were added to the growth medium. Cells were grown in a 5% CO2 atmosphere at 37 °C.
For the cytotoxicity assays, the same protocol as detailed in Section 4.4 above was used. Murine macrophages were incubated with serial dilutions of the evaluated compounds at 37 °C in a 5% CO2 atmosphere over 24 h. The obtained data were analyzed as described in the previous section in order to calculate the CC50.
(§1) The in vitro IC50, IC90, and CC50 of the compounds were determined by a non-linear regression with a 95% confidence limit. The SigmaPlot 12.0 software (Systat Sofware Inc., London, UK) was used to perform the data analysis using a paired two-tailed t-test. Values of p < 0.05 were considered significant. The data represent the mean value and the SD of the conducted three different experiments.
A general note: Alamar Blue is a resazurin reagent that responds to reducing activity.

For another data set, the system named is N. fowleri ATCC® 30215. As to the kind of experiment: In vitro activity against N. fowleri trophozoites (alamarBlue), strain ATCC 30215. The data set is classed as cell-based. The following applies: Naegleria fowleri, ATCC30215, 48 h, mean ± SD. The procedure: (§2) The in vitro activity against N. fowleri trophozoites was evaluated in two different strains from the American Type Culture Collection (LG Promochem, Barcelona, Spain), ATCC® 30808™ and ATCC® 30215™. Cells were axenically grown in 2% Bactocasitone (w/v) medium (Thermo Fisher Scientific, Madrid, Spain) at 37 °C. Moreover, 10% (v/v) of fetal bovine serum (FBS) 0.3 μg/mL of Penicillin G Sodium Salt and 0.5 mg/mL of Streptomycin sulphate (Sigma-Aldrich, Madrid, Spain) were also added to the Bactocasitone medium.
(§3) For these assays, a colorimetric assay was conducted using the alamarBlue® reagent. Briefly, N. fowleri trophozoites were seeded in duplicate in a 96-well microtiter plate. After that, different concentrations of the evaluated meroterpenoids diluted in fresh Bactocasitone were added to the wells. The negative control consisted on the trophozoites incubated with the medium alone. Lastly, the alamarBlue® (Life Technologies, Madrid, Spain) reagent was added. Plates were incubated in slight agitation at 37 °C. After 48 h, the fluorescence of the wells was analyzed in an EnSpire Multimode Plate Reader (Perkin Elmer, Madrid, Spain) using a wavelength of excitation of 570 nm and a wavelength of emission of 585 nm.
(§4) In order to calculate the IC50 and IC90, a nonlinear regression analysis with a 95% confidence limit was performed.
as §1

The next data set relates to N. fowleri ATCC® 30808. Description: In vitro activity against N. fowleri trophozoites (alamarBlue), strain ATCC 30808. Format: cell-based, Naegleria fowleri. The following applies: for IC50: Naegleria fowleri, ATCC30808, N. fowleri trophozoites, 48 h, alamarBlue, mean ± SD, read-out: IC50 ATCC® 30808; for Anti-Naegleria activity (in words): both tested strains of N. fowleri. The procedure:
as §2, §3, §4, §1

In a further data set the test system is Acanthamoeba. Also noted: method as in PMID 36916403. The following applies: cited from earlier work.

On to `C[C@@H]1[C@H](O)[C@@H](C)/C=C/C=C/C=C/C=C/C=C/C=C/C=C/[C@H](O[C@@H]2O[C@H](C)[C@@H](O)[C@H](N)[C@@H]2O)C[C@@H]2O[C@](O)(C[C@@H](O)C[C@@H](O)[C@H](O)CC[C@@H](O)C[C@@H](O)CC(=O)O[C@H]1C)C[C@H](O)[C@H]2C(=O)O` [Amphotericin B, amphotericin B, reference compound], for which the CC50 (as a rule, the concentration that lowers cell viability or growth by half) at 24 h in data set [1] is over 200 µM. Further, the IC50 (as a rule, the concentration needed to halve the response being measured) came to 0.16 ± 0.03 µM in the data set with N. fowleri ATCC® 30215 and 0.12 ± 0.03 µM in the data set with N. fowleri ATCC® 30808.

`COc1c(C)cc(O)cc1C/C=C(\C)CC(=O)/C=C(\C)CCC[C@@H](C)[C@H]1C[C@@H](O)C(C)(C)O1` [Gongolarone A (4), gongolarone A]: the CC50 at 24 h in data set [1] is over 400 µM. Besides, the “Activity against tested species of Acanthamoeba (in words)” value in the data set on Acanthamoeba is recorded as “most active”. In addition, in the data set on N. fowleri ATCC® 30808, the 50% inhibitory concentration (IC50) was over 100 µM and the “Anti-Naegleria activity (in words)” value was “no anti-Naegleria activity”.

For the molecule `COc1c(C)cc(O)cc1CC/C(C)=C/C(=O)/C=C(\C)CCC[C@@H](C)C(=O)/C=C/C(C)(C)O` [Gongolarone C (5), gongolarone C], in data set [1], the CC50 at 24 h is over 400 µM. For the same molecule, the “Activity against tested species of Acanthamoeba (in words)” value with Acanthamoeba is reported as “most active”. In the data set with N. fowleri ATCC® 30808, the IC50 was over 100 µM. The “Anti-Naegleria activity (in words)” value with N. fowleri ATCC® 30808 (listed as 5) was “no anti-Naegleria activity”; in the data set with N. fowleri ATCC® 30808 (listed as gongolarone C (5)), “loss of activity”.

In data set [1], `CCCCCCCCCCCCCCCCOP(=O)([O-])OCC[N+](C)(C)C` [Miltefosine, miltefosine, reference compound] gave a 50% cytotoxic concentration (CC50) at 24 h of 128 ± 8.85 µM. Besides, the IC50 in the data set on N. fowleri ATCC® 30215 was 81.6 ± 7.23 µM; with N. fowleri ATCC® 30808, 38.7 ± 4.23 µM.
